In US11497751B2, “Modulators of Rho-associated protein kinase” (Redx Pharma PLC, priority 2018, dated 2022):

Tests used:
[1] = tested on: T cells; conditions: oral administration of KD025, healthy human subjects, ex-vivo stimulation of T-cells; cited from earlier work
[2] = target: T1, N-terminal 6His-tagged ROCK2 catalytic domain 11-552 (Homo sapiens, UniProt O75116); assay: ROCK2 binding activity: ROCK2 inhibition, ADP-Glo Kinase Assay; assay type: biochemical; conditions: 1.25 nM ROCK2, 100 μM long S6 peptide, 20 μM ATP; 1 hour pre-incubation; read-out: ADP-Glo kinase activity assay ROCK2 Category
T1 construct: N-terminal 6His-tagged ROCK2 catalytic domain 11-552; 6His (N); purchased Dundee University, UK; host or cells: baculovirus expression system
Summary of the method: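 1.25 nM baculovirus-expressed ROCK2 pre-incubated 1 h with compound (1% DMSO), then 100 μM long S6 peptide and 20 μM ATP added for 1 h; 50 mM HEPES pH 7.5, 10 mM Mg acetate, 1 mM DTT. ADP-Glo luminescence; IC50 from four-parameter logistic fit.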

T1 sequence (O75116 11-552): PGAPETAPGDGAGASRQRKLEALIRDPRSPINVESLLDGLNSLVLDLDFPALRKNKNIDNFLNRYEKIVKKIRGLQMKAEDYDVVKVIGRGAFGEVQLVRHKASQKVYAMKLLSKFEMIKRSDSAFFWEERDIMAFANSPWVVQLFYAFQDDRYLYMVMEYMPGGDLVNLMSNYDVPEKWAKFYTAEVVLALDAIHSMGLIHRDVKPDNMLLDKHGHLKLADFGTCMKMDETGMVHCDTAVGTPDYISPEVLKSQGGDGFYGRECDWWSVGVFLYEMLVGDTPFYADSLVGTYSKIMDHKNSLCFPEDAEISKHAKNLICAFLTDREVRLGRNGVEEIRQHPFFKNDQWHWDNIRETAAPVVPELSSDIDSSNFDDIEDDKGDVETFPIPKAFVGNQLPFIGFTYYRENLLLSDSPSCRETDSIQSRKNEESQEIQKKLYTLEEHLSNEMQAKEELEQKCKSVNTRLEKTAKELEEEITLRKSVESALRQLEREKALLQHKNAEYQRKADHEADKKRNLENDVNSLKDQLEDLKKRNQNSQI

SMILES | IC50 [2] [nM] | further results
CC(C)NC(=O)COc1cccc(-c2nc(Nc3ccc4[nH]ncc4c3)c3ccccc3n2)c1 [KD025] | – | reduction of the ability of T cells to secrete IL-17 [1]: 60%; reduction of the ability of T cells to secrete IL-21 [1]: 90%
CC(C)NC(=O)COc1ccc(-c2nnc(Nc3ccc4[nH]ncc4c3)[nH]2)cc1CN [Example 15] | 300 to 3000 | –
Cn1nc(-c2ccc3c(c2)OCCC3=O)nc1Nc1ccc2[nH]ncc2c1Cl [Example 66] | < 300 | –
COc1cc(-c2nc(Nc3ccc4[nH]ncc4c3)n(C)n2)ccc1OCC(=O)NC1CNC1 [Example 45] | < 300 | –
COc1ccccc1-c1nnc(Nc2ccc3[nH]ncc3c2)[nH]1 [Example 4] | > 10000 | –
COc1cc(-c2nc(Nc3ccc4[nH]ncc4c3)n(C)n2)ccc1OCC(=O)NC(C)C [Example 167] | < 300 | –
COc1cc(-c2nc(Nc3ccc4[nH]ncc4c3Cl)n(C)n2)ccc1OCC(=O)NCC(C)O (stereo not drawn) [Example 206] | < 300 | –
CN1CCc2cc(-c3nc(Nc4ccc5[nH]ncc5c4)n(C)n3)ccc2C1=O [Example 47] | < 300 | –
Cn1nc(-c2cncnc2)nc1Nc1ccc2[nH]ncc2c1Cl [Example 76] | 300 to 3000 | –
CC(C)NC(=O)COc1ccc(-c2nc(Nc3ccc4[nH]ncc4c3)n[nH]2)cc1F [Example 12, 2-[2-fluoro-4-[5-(1H-indazol-5-ylamino)-4H-1,2,4-triazol-3-yl]phenoxy]-N-isopropyl-acetamide] | < 300 | –

Now from value to molecule, other results behind:

IC50 [2] [nM] | SMILES | further results
< 300 | CCNC(=O)c1ccc(-c2nc(Nc3ccc4[nH]ncc4c3Cl)n(C)n2)c(OC)c1 [Example 347] | –
< 300 | CC(C)C(=O)N1CCc2cc(-c3nc(Nc4ccc5[nH]ncc5c4Cl)n(C)n3)ccc2C1 [Example 236, 1-[6-[5-[(4-chloro-1H-indazol-5-yl)amino]-1-methyl-1,2,4-triazol-3-yl]-3,4-dihydro-1H-isoquinolin-2-yl]-2-methyl-propan-1-one] | –
< 300 | CCNC(=O)c1ccc(-c2nc(Nc3ccc4[nH]ncc4c3Cl)n(C)n2)cc1C#N [Example 358] | –
< 300 | CC(C)NC(=O)COc1ccc(-c2nc(Nc3ccc4[nH]ncc4c3)n(C)n2)cc1C(F)(F)F [Example 397] | –
< 300 | Cn1nc(-c2ccc(C(=O)NCC(C)(F)F)cc2)nc1Nc1ccc2[nH]ncc2c1C1CC1 [Example 338, 4-[5-[(4-cyclopropyl-1H-indazol-5-yl)amino]-1-methyl-1,2,4-triazol-3-yl]-N-(2,2-difluoropropyl)benzamide] | –
< 300 | CCNC(=O)c1cc(F)c(-c2nc(Nc3ccc4[nH]ncc4c3)n(C)n2)c(F)c1 [Example 413] | –
> 10000 | CCNC(=O)N1CCC(c2nc(Nc3ccc4[nH]ncc4c3C3CC3)n(C)n2)CC1 [Example 340, 4-[5-[(4-cyclopropyl-1H-indazol-5-yl)amino]-1-methyl-1,2,4-triazol-3-yl]-N-ethyl-piperidine-1-carboxamide] | –
300 to 3000 | COc1cc(-c2nc(Nc3cnc4[nH]ncc4c3)n(C)n2)ccc1C(=O)NC(C)C [Example 331] | –
< 300 | COc1cc(OCC(=O)NC(C)C)ccc1-c1nc(Nc2ccc3[nH]ncc3c2)n(C)n1 [Example 404] | –
< 300 | Cn1nc(-c2ccc(C(=O)NCC(F)(F)F)cc2)nc1Nc1ccc2[nH]nc(F)c2c1 [Example 428] | –
300 to 3000 | CCNC(=O)N1CC=C(c2nc(Nc3ccc4[nH]ncc4c3C3CC3)n(C)n2)CC1 [Example 341, 4-[5-[(4-cyclopropyl-1H-indazol-5-yl)amino]-1-methyl-1,2,4-triazol-3-yl]-N-ethyl-3,6-dihydro-2H-pyridine-1-carboxamide] | –
< 300 | Cc1cc(-c2nc(Nc3ccc4[nH]ncc4c3C)n(C)n2)ccc1C(=O)NCC(F)(F)F [Example 417] | –
< 300 | CCNC(=O)c1ccc(-c2nc(Nc3ccc4[nH]ncc4c3C3CC3)n(C)n2)cc1C [Example 277] | –
